Where a SMILES comes first, the peptide text is derived from it. Bridges are numbered along the chain shown (N, C = ends). [ ]: non-standard residue; d: D form.

For test [1], the system named is human FVIII inhibited plasma. The test is described as follows: Defined Intrinsic Thrombin Generation Assay (DITGA, triggered by FXIa and phospholipids). The format is biochemical. The note with it: for Activity in the Defined Intrinsic Thrombin Generation Assay: summary. The source says:
(§1) The intrinsic pathway of thrombin generation may be assayed in a thrombin generation assay by including FXIa and phospholipids. In such an assay, which is similar to an activated partial thromboplastin time (aPTT) test, thrombin generation is solely directed through the intrinsic pathway, and is FVIII dependent. A suitable assay is the Defined Intrinsic Thrombin Generation Assay described below. Alternatively, by employing low concentrations of TF and phospholipids instead of FXIa and phospholipids, thrombin is generated by both the extrinsic (tissue factor) and the intrinsic pathways. This form of the thrombin generation assay is the more physiologic one, as both thrombin generation pathways are involved; it is partially FVIII dependent. A suitable assay is the Defined Dual-Pathway Thrombin Generation Assay.
The Defined Intrinsic Thrombin Generation Assay is performed as follows. FVIII activity of human plasma is inhibited by incubating (2 hours, 37° C.) 40 μl of human normal plasma with 10 μl heat inactivated anti-human FVIII plasma raised in goat (600 BU/ml, 6 hours incubated at 56° C.). […] Instead of FVIII-inhibited plasma, FVIII inhibitor patient plasma or several depleted plasmas can be used. The micro-plate is immediately put into a GENios Plus (Tecan) or Safire 2 (Tecan) fluorescence reader and the fluorescence signal (ex 340 nm/em 440 nm) is followed kinetically by reading the plate every 21 seconds.
For calculation of activity equivalent units experiments are performed with dilutions of Factor Eight Inhibitor Bypassing Agent (FEIBA, Baxter AG), Immunate (human FVIII, purified plasma derived) reference standard (Baxter AG) or Recombinate standard (human FVIII, purified recombinant, Baxter AG). A linear fit of the logarithm of FEIBA (FVIII) concentration plotted against thrombin generation time at peak thrombin results in a standard curve. With this curve FEIBA (FVIII) equivalent activity is calculated for a defined peptide concentration. […] Thus, where a concentration of 100 μM is given, the actual concentration in the final assay volume in 40 μM.
Compounds were screened using the “Defined intrinsic thrombin generation assay” in which thrombin generation was quantified in vitro in FVIII-inhibited human plasma in the presence of Factor XIa and phospholipid vesicles. Further compounds were screened in the above assay, and in the “Defined dual-pathway thrombin generation assay” using tissue factor and phospholipids instead of Factor XIa and phospholipids, as described in the specific description.
Various concentrations of each peptide were tested in the defined intrinsic thrombin generation assay using human FVIII inhibited plasma.

Test [2] concerns FVIII-inhibited human normal plasma. The test is described as follows: Defined Fibrin Deposition Assay (clotting time). The format is biochemical. Particulars: for Activity in the Defined Fibrin Deposition Assay: summary. The protocol:
Another suitable assay to determine procoagulant activity, and particularly FVIII equivalent activity or FVIII inhibitor bypassing activity, is the Defined Fibrin Deposition Assay as described below. […] This assay is particularly useful for determining coagulation FVIII activity because it is conducted in the presence of FVIII-depleted or inhibited plasma.
The Defined Fibrin Deposition Assay is performed as follows. FVIII activity of human citrated plasma (Baxter AG) is first inhibited by incubating (2 hours, 37° C.) 100 μl of human normal plasma with 25 μl heat inactivated anti-human FVIII plasma (300 BU/ml, 6 hours incubated at 56° C.) raised in goat. For each sample to be tested, 125 μl of this FVIII-inhibited human normal plasma is transferred to a pre-warmed cuvette and a 75 μl dilution of a test compound or FEIBA reference standard (Baxter AG) is added. The dilutions of test compound or FEIBA reference standard contain 50 mM imidazole, 100 mM NaCl and 10 mg/ml human serum albumin (Sigma) pH 7.4. As a trigger and for providing procoagulant surfaces 100 μl of a mix of human factor XIa (3.13 nM, Enzyme Research Laboratories) and phospholipid (PL) vesicles (Phosphatidylcholine/Phosphatidylserine 60%/40%, 30 μM; Avanti Polar Lipids) in 50 mM Imidazole, 100 mM NaCl, 10 mg/ml human serum albumin (Sigma) pH 7.4 is included. After incubating for three minutes at 37° C. the coagulation reaction is started by adding 100 μl of 25 mM CaCl2. Clot formation is monitored by a coagulometer (KC10A, Amelung, Germany). In brief, each cuvette rotates slowly above the magnetic detection device and contains a small magnetic metallic ball. Whilst the plasma components remain in solution, the ball sits at the bottom of the cuvette. Over time, a clot begins to form, such that the ball starts to rotate with the developing clot in the rotating cuvette. The “clotting time” is recorded and is defined as the time from addition of the CaCl2) to the time that the developing clot begins to rotate the metallic ball. A standard curve for FEIBA reference standard dilutions is calculated by linear regression of logarithmic FEIBA concentrations (x-axis) against the clotting time (y-axis). Based on the clotting time of each compound concentration FEIBA equivalent activities are calculated according to this standard curve.
Thus, where a concentration of 100 μM is given, the actual concentration in the final assay volume in 25 μM.
Various peptides were tested for the ability to stimulate fibrin deposition in the Defined Fibrin Deposition Assay as described in the specific description.

Test [3] relates to FVIII deficient plasma. The test is described as follows: Defined Dual-Pathway Thrombin Generation Assay (DDPTGA, reagent C high), FVIII deficient plasma. It is filed as biochemical, human. The note with it: FVIII deficient plasma.
Description: as §1
(§2) Preferably, Reagent C high is used.
(§3) Tissue factor dependency of peak thrombin generation and thrombin peak time was characterised in a composition containing a fixed concentration of phospholipid (namely 3.2 μM). Phospholipid dependency was characterised in a composition containing a fixed concentration of tissue factor (namely 7.2 μM). Peak time (time to peak thrombin generation) was dependent on the concentration of phospholipid or tissue factor. The final version of this assay is as described in the specific description, in which 10 μl reagent C high containing (32 μM phospholipid and 71.6 μM tissue factor) is used in a total volume of 100 μl.
(§4) Further studies were conducted using 3.2 μM phospholipid and 7.2 μM tissue factor in FVIII deficient or inhibited plasma, to characterise the effect on peak thrombin generation and thrombin peak time of various coagulation factor preparations. These studies provided a basis from which to compare the efficacy of the compounds in the assay. Briefly, rFVIII (Recombinate® FVIII from Baxter) was tested at 0, 5, 10, 20, 40 and 80 mU/ml in FVIII deficient plasma. FEIBA was tested at 0, 8, 16, 31, 63 and 125 mU/ml in FVIII inhibited plasma. FVIIa was tested at 0, 0.1, 0.4, 1.6, 6.3 and 25 nM in FVIII inhibited plasma. […] Peak thrombin increased and both the lag time and the thrombin peak time decrease.

Test [4] concerns Factor X deficient human plasma. The test is described as follows: DDPTGA (reagent B) in FX depleted plasma. The note with it: compounds at 50 μM and 80, 90 or 100 μM.
Description: (§5) The Defined Dual-Pathway Thrombin Generation Assay is performed as described below, using a commercial test kit (Technothrombin TGA, Technoclone GmbH, Vienna, Austria). […] USA) are incubated four minutes at 37° C. Preferably, Reagent C high is used. Thrombin generation is started by the addition of 40 μl of one of several types of human plasma (37° C.). […] By deviating the original fluorescence data the amount of generated thrombin is calculated from a standard curve constructed using a concentration range of thrombin.
(§6) The in vitro thrombin generation assay based on the cleavage of Z-GGR-AMC to release the fluorophore AMC, described in the specific description, i.e. the Defined Dual-Pathway Thrombin Generation Assay was used to characterise the effect of the compounds in several depleted human plasmas. […] 10 μl peptide dilution, 40 μl TGA substrate and 40 μl plasma were used as described in the specific description.
(§7) The plasmas used in the experiments were fresh frozen and were deficient in Factor V, Factor VII/VIIa, Factor VIII, Factor X or Factor XI (George King Bio-Medical, Inc.). Residual coagulation factor levels of deficient plasmas were specified as less than 1%.
(§8) For each depleted plasma used in the experiments, compounds were tested at two concentrations, namely 50 μM and 80, 90 or 100 μM. A negative control was used, in which no test compound was included.
For test [5], the system named is Factor V deficient human plasma. The test is described as follows: DDPTGA (reagent B) in FV depleted plasma. The note with it: compounds at 50 μM and 80, 90 or 100 μM.
Description: as §5, §6, §7, §8
Test [6] concerns Factor VII/VIIa deficient human plasma. The test is described as follows: DDPTGA (reagent B) in FVII depleted plasma. The note with it: compounds at 50 μM and 80, 90 or 100 μM.
Description: as §5, §6, §7, §8
The subject of test [7] is Factor XI deficient human plasma. The test is described as follows: DDPTGA (reagent B) in FXI depleted plasma. The note with it: compounds at 50 μM and 80, 90 or 100 μM.
Description: as §5, §6, §7, §8
The test system of test [8] is Factor VIII deficient human plasma. The test is described as follows: DDPTGA (reagent B) in FVIII depleted plasma. Note: key: '+' means stimulates; '−' means does not stimulate. The format is biochemical. Particulars: compounds at 50 μM and 80, 90 or 100 μM.
Description: as §2

In test [9] the test system is FVIII inhibited plasma. The test is described as follows: Defined Dual-Pathway Thrombin Generation Assay (DDPTGA, reagent C high), FVIII inhibited plasma. The format is biochemical, human. The note with it: for Peak IIa FEIBA EU / Peak IIa FVIIa EU / Peak Time FEIBA EU / Peak Time FVIIa EU: FVIII inhibited plasma.
Description: as §1, §2, §3, §4

Test [10] has as its system FIX−/− mice. The test is described as follows: Tail clip assay in FIX−/− mice (blood loss, survival). The format is in vivo, mouse. Particulars: for Survival (%) 2 hours / Survival (%) 4 hours / Survival (%) 24 hours / Survival (%) 48 hours: FIX−/− mice, tail clip.

On to `CC[C@@H](C)[C@H]1NC(=O)[C@H](NC(C)=O)CSSC[C@H](C(=O)N[C@H](Cc2ccc(O)cc2)C(=O)N[C@H](CCC(=O)O)C(N)=O)NC(=O)[C@@H](CC(=O)O)NC(=O)[C@@H](Cc2ccc(O)cc2)NC(=O)[C@@H](Cc2c[nH]c3ccccc23)NC(=O)[C@@H](Cc2ccccc2)NC(=O)[C@@H](CCSC)NC1=O` [Peptide B01, Ac-(cimfwydc)-ye-NH2] (Ac-[dC][dI][dM][dF][dW][dY][dD][dC][dY][dE]-NH2; disulfide 1-8), for which the “Thrombin peak time given as FEIBA equivalent activity” value in test [1] (peptide 12.5 μM) is on record as 35 mU/ml; in test [1] (peptide 25 μM), 62 mU/ml; in test [1] (peptide 50 μM), 89 mU/ml; in test [1] (peptide 100 μM), 103 mU/ml. Moreover, the “Activity in the Defined Intrinsic Thrombin Generation Assay” value in test [1] is given as “possess activity”. Moreover, the “FEIBA EU (from clotting time)” value in test [2] (compound 25 μM) is listed as 31 mU/ml; in test [2] (compound 50 μM) it was 47 mU/ml; in test [2] (compound 100 μM) it was 94 mU/ml. The “Activity in the Defined Fibrin Deposition Assay” value in [2] is recorded as “possess activity”.
Take Ac-WDLYFEIVW-ttds-E [Peptide A07]: the “Thrombin peak time given as FEIBA equivalent activity” value was found to be 415 mU/ml in [1] (peptide 6.25 μM); 585 mU/ml in test [1] (peptide 12.5 μM); 750 mU/ml in [1] (peptide 25 μM); 965 mU/ml in test [1] (peptide 50 μM); 1129 mU/ml in test [1] (peptide 100 μM). Further, the “Activity in the Defined Intrinsic Thrombin Generation Assay” value in [1] is “possess activity”. For the same compound, the “FEIBA EU (from clotting time)” value in test [2] (compound 12.5 μM) worked out at 268 mU/ml; in test [2] (compound 25 μM), 246 mU/ml; in test [2] (compound 50 μM), 199 mU/ml. The “Activity in the Defined Fibrin Deposition Assay” value in test [2] is “possess activity”. Moreover, the “Peak IIa FVIII EU” value in test [3] (peptide 50 μM) and in test [3] (peptide 100 μM) was “BLS (BLS = below lowest standard.)” in each case. For the same compound, the “Peak Time FVIII EU” value in test [3] (peptide 50 μM) and in test [3] (peptide 100 μM) was “BLS (BLS = below lowest standard.)” each time. Also, the “Stimulation of thrombin generation” value in test [4] is on record as “+”; in test [5], “−”; in test [6], “+”; in [7] it was “+”; in test [8], “+”. In addition, the “Peak IIa FEIBA EU” value in [9] (peptide 50 μM) and in test [9] (peptide 100 μM) was “BLS (BLS = below lowest standard.)” throughout. Besides, the “Peak IIa FVIIa EU” value in test [9] (peptide 50 μM) was “BLS (BLS = below lowest standard.)”; in [9] (peptide 100 μM), 0.1 nM. Moreover, the “Peak Time FEIBA EU” value in [9] (peptide 50 μM) and in test [9] (peptide 100 μM) was “BLS (BLS = below lowest standard.)” each time. The “Peak Time FVIIa EU” value in test [9] (peptide 50 μM) and in test [9] (peptide 100 μM) was “BLS (BLS = below lowest standard.)” throughout. Further, the “Activity in the Defined Dual-Pathway Thrombin Generation Assay” value in test [9] (summary, FVIII inhibited or deficient plasma) was “possess activity”.
Regarding “Immunine: purified plasma FIX preparation (Baxter AG. Austria)”, in test [10] (50, 100 or 200 U/kg i.v.), the “Blood loss over the 62 minutes after tail clip” value is listed as “dose-dependent reduction”. The “Bleeding parameters and survival” value in test [10] (50-200 U/kg) is “dose dependently improves”. Besides, in test [10] (50 U/kg i.v.), the “Survival (%) 2 hours” value was determined as 94%, the “Survival (%) 4 hours” value is reported as 69%, the “Survival (%) 24 hours” value was determined as 63% and the “Survival (%) 48 hours” value came out at 63%. In test [10] (100 U/kg i.v.), the “Survival (%) 2 hours” value is reported as 100%, the “Survival (%) 4 hours” value was 100%, the “Survival (%) 24 hours” value worked out at 94% and the “Survival (%) 48 hours” value is 94%. In addition, in [10] (200 U/kg i.v.), the “Survival (%) 2 hours” value turned out to be 100%, the “Survival (%) 4 hours” value amounted to 100%, the “Survival (%) 24 hours” value stood at 100% and the “Survival (%) 48 hours” value was found to be 100%.

Values taken from patent publication US10822376B2, “Biologically active peptides” (Baxalta Incorporated, priority 2008, dated 2020).
